Assay results reported in publication PMC8791477, “Evaluation of SARS-CoV-2 entry, inflammation and new therapeutics in human lung tissue cells” (PLoS Pathogens, 2022).
Structures can show the parent of a compound that is named as a salt. Where two headings read alike, the source gives them in different places.

Assays:
[1] = tested on: VSV*ΔG(Luc)-S virus (SARS-CoV-2 spike, D614G); conditions: for EC50: read-out: EC50 HLT
[2] = tested on: VSV*ΔG(Luc)-S virus (SARS-CoV-2 spike, D614G); conditions: for EC50: read-out: EC50 Vero E6

Row | Molecule | EC50 [1] [µM] | EC50 Vero E6 [2] | EC50 HLT [1] | further results
1 | CN(C)C(=O)COC(=O)Cc1ccc(OC(=O)c2ccc(NC(=N)N)cc2)cc1 [Camostat, Camostat mesylate] |  |  |  | viral entry in HLT cells with entry-factor blockers (in words) [1]: significantly inhibited viral entry
2 | Cc1ccc(-c2cc(C(F)(F)F)nn2-c2ccc(S(N)(=O)=O)cc2)cc1 [Celecoxib] | 55.7 |  |  | EC50 [2]: 13 µM
3 | COc1ccc2cc1Oc1ccc(cc1)C[C@H]1c3c(cc4c(c3Oc3cc5c(cc3OC)CCN(C)[C@@H]5C2)OCO4)CCN1C [Cepharanthine] |  |  |  | SI VeroE6 (CC50/EC50) [2]: 48.47; SI HLT (CC50/EC50) [1]: 2.64
4 | CC(C)C(=O)OCC(=O)[C@@]12O[C@H](C3CCCCC3)O[C@@H]1C[C@H]1[C@@H]3CCC4=CC(=O)C=C[C@]4(C)[C@H]3[C@@H](O)C[C@@]12C [Ciclesonide] | 16.4 |  |  | EC50 [2]: 20.5 µM
5 | C[C@]12CCC(=O)C=C1CC[C@@H]1[C@@H]2[C@@H](O)C[C@@]2(C)[C@H]1CC[C@]2(O)C(=O)CO [Cortisol] |  | No effect | No effect | 
6 | C[C@@H]1C[C@H]2[C@@H]3CCC4=CC(=O)C=C[C@]4(C)[C@@]3(F)[C@@H](O)C[C@]2(C)[C@@]1(O)C(=O)CO [Dexamethasone] |  | No effect | No effect | viral entry in VeroE6 cells (in words) [2]: without any apparent impact
7 | O=C1C[C@@H](c2ccc(O)c(O)c2)Oc2cc(O)cc(O)c21 [Eriodictyol] | 90 |  |  | viral entry in HLT cells (in words) [1]: certain activity
8 | CC1(C)[C@@H](O[C@H]2O[C@H](C(=O)O)[C@@H](O)[C@H](O)[C@H]2O[C@@H]2O[C@H](C(=O)O)[C@@H](O)[C@H](O)[C@H]2O)CC[C@]2(C)[C@H]3C(=O)C=C4[C@@H]5C[C@@](C)(C(=O)O)CC[C@]5(C)CC[C@@]4(C)[C@]3(C)CC[C@@H]12 [Glycyrrhizin] |  | No effect | No effect | 
9 | Oc1ccc(CC2NCCc3cc(O)c(O)cc32)cc1 (stereo not shown) [Higenamine, Higenamine hydrochloride] |  | No effect | No effect | 
10 | Cc1cc(O)c2c(=O)c3c(O)cc(O)c4c5c(O)cc(O)c6c(=O)c7c(O)cc(C)c8c1c2c(c34)c(c78)c65 [Hypericin] | 0.31 |  |  | EC50 [2]: 1.24 µM
11 | CC(C)Cc1ccc(C(C)C(=O)O)cc1 (stereo not shown) [Ibuprofen] |  | No effect | No effect | 
12 | O=C1Nc2ccccc2/C1=C1/Nc2ccccc2C1=O [Indirubin] |  | No effect | No effect | 
13 | CCCCCCCCCCCC(=O)O [Lauric acid] |  | No effect | No effect | 
14 | CC1(C)Cc2c(-c3ccccc3)c(-c3ccc(Cl)cc3)c(CC(=O)O)n2C1 [Licofelone] | 32.2 |  |  | 
15 | O=c1cc(-c2ccc(O)c(O)c2)oc2cc(O)cc(O)c12 [Luteolin] | ~82.4 |  |  | EC50 [2]: ~70.7 µM
16 | CN(C)C(=N)N=C(N)N [Metformin] |  | No effect | No effect | 
17 | CCCCCCCCCC(=O)OCC(O)CO (stereo not shown) [Monocaprin] |  | No effect | No effect | 
18 | CCCCCCCCCCCC(=O)OCC(O)CO (stereo not shown) [Monolaurin] |  | No effect | No effect | 
19 | O=c1c(O)c(-c2cc(O)c(O)c(O)c2)oc2cc(O)cc(O)c12 [Myricetin] |  | No effect | No effect | 

Row | Molecule | EC50 [1] [µM] | EC50 Vero E6 [2] | EC50 HLT [1] | further results
20 | O=C1CN(/N=C/c2ccc([N+](=O)[O-])o2)C(=O)N1 [Nitrofurantoin] |  | No effect | No effect | 
21 | Cc1cccn2c(=O)c(-c3nnn[nH]3)cnc12 [Pemirolast, Pemirolast potassium] |  | No effect | No effect | 
22 | [H]/N=C(/N)N/C(=N/[H])NCCc1ccccc1 [Phenformin] | 38.2 |  |  | viral entry in HLT cells (in words) [1]: significantly reduced viral entry
23 | C[C@]12C=CC(=O)C=C1CC[C@@H]1[C@@H]2C(=O)C[C@@]2(C)[C@H]1CC[C@]2(O)C(=O)CO [Prednisone] |  | No effect | Some effect | viral entry in VeroE6 cells (in words) [2]: without any apparent impact; viral entry in HLT cells (in words) [1]: partial reduction of viral entry
24 | NC(=O)[C@@H]1CCCN1C(=O)[C@H](Cc1c[nH]cn1)NC(=O)[C@@H]1CCC(=O)N1 [Protilerin] |  | No effect | No effect | 
25 | O=c1c(O)c(-c2ccc(O)c(O)c2)oc2cc(O)cc(O)c12 [Quercetin] |  |  |  | viral entry in VeroE6 cells (in words) [2]: some viral entry suppression; EC50 [2]: > 100 µM
26 | CCCCCCCCCCCCOS(=O)(=O)[O-].[Na+] [SLS, Sodium lauryl sulfate] | > 100 |  |  | EC50 [2]: ~26.4 µM
27 | N[C@@H](CC(=O)N1CCn2c(nnc2C(F)(F)F)C1)Cc1cc(F)c(F)cc1F [Sitagliptin] |  | No effect | No effect | 
28 | Cc1ccnc(NS(=O)(=O)c2ccc(N)cc2)n1 [Sulfamerazine] |  | No effect | No effect | 
29 | Cc1cc(NS(=O)(=O)c2ccc(N)cc2)no1 [Sulfamethoxazole] |  | No effect | No effect | 
30 | CC1=C(CC(=O)O)c2cc(F)ccc2/C1=C\c1ccc([S+](C)[O-])cc1 (stereo not shown) [Sulindac] | > 100 | No effect |  | 
31 | C[C@]1(Cn2ccnn2)[C@H](C(=O)O)N2C(=O)C[C@H]2S1(=O)=O [Tazobactam] |  | No effect | No effect | 
32 | C[C@H](O)[C@H](O)[C@H]1CNc2nc(N)[nH]c(=O)c2N1 [Tetrahydrobiopterin, Tetrahydrobiopterin dihydrochloride] |  | No effect | No effect | 
33 | CC(C)[C@H](N)C(=O)OCCOCn1cnc2c(=O)[nH]c(N)nc21 [Valaciclovir] | > 100 |  |  | viral entry in HLT cells (in words) [1]: some inhibitory potential
34 | N#C[C@@H]1CCCN1C(=O)CNC12CC3CC(CC(O)(C3)C1)C2 [Vidagliptin, Vildagliptin] |  | No effect | No effect | 
35 | Nc1ncnc2c1ncn2[C@@H]1O[C@H](CO)[C@@H](O)[C@@H]1O [Vidarabine] | 51.6 |  |  | EC50 [2]: > 100 µM
36 | Ergoloid mesylates | 9.17 |  |  | SI VeroE6 (CC50/EC50) [2]: 3.9; EC50 [2]: 4.78 µM; SI HLT (CC50/EC50) [1]: 11.38; viral entry inhibition in HLT cells [1]: ~ 90%
37 | Ivermectin | 13 |  |  | SI VeroE6 (CC50/EC50) [2]: 1.4; EC50 [2]: 13.9 µM; SI HLT (CC50/EC50) [1]: 7.75; viral entry in HLT cells (in words) [1]: effective antiviral
38 | recombinant protein AXL |  |  |  | viral entry in HLT cells with entry-factor blockers (in words) [1]: inhibited SARS-CoV-2 entry
